Measured values taken from US8637501B2, “Azinone-substituted azepino[b]indole and pyrido-pyrrolo-azepine MCH-1 antagonists, methods of making, and use thereof” (Albany Molecular Research, Inc., priority 2009, dated 2014).
Counter-ions that a name gives are not always drawn.

molecular target: human MCH-1 receptor (Homo sapiens (Human), UniProt Q99705); assay: Binding Assay for Human Melanin-Concentrating Hormone (MCH-1) Receptor; conditions: radioligand displacement, membranes from CHO-K1 cells expressing human MCH-1 receptor; Ki from IC50 by Cheng Prusoff equation; read-out: MCH1 Ki
Description: Binding Assay for Human Melanin-Concentrating Hormone (MCH-1) Receptor
Evaluation of the affinity of compounds for the human MCH-1 receptor was accomplished using 4-(3,4,5-tritritiumbenzyloxy)-1-(1-(2-(pyrrolidin-1-yl)ethyl)-1H-indazol-5-yl)pyridin-2(1H)-one and membranes prepared from stable CHO-K1 cells expressing the human MCH-1 receptor obtained from Euroscreen (Batch 1138). Cell membrane homogenates (8.92 μg protein) were incubated for 60 min at 25° C. with 1.4 nM of the [^3H]-labeled compound in the absence or presence of the test compound in 50 mM Tris-HCl buffer, pH 7.4. Nonspecific binding was determined in the presence of 50 μM 1-(5-(4-cyanophenyl)bicyclo[3.1.0]hexan-2-yl)-3-(4-fluoro-3-(trifluoromethyl)phenyl)-1-(3-(4-methylpiperazin-1-yl)propyl)urea. Following incubation, the samples were filtered rapidly under vacuum through Skatron 11731 filters, pre-soaked in 0.5% polyethylenimine, and washed with ice-cold 50 mM Tris-HCl buffer, pH 7.4, (wash setting 9,9,0) using a Skatron cell harvester. The filters were counted for radioactivity in a liquid scintillation counter (Tri-Carb 2100TR, Packard) using a scintillation cocktail (Ultima Gold MV, Perkin Elmer).
The results are expressed as a percent inhibition of the control radioligand specific binding. The IC50 value (concentration causing a half-maximal inhibition of control specific binding) and Hill coefficient (nH) were determined by non-linear regression analysis of the competition curve using Hill equation curve fitting. The inhibition constant (Ki) was calculated from the Cheng Prusoff equation: (Ki=IC50/(1+(L/KD)), where L=concentration of radioligand in the assay, and KD=affinity of the radioligand for the receptor.

human MCH-1 receptor, sequence (Q99705 whole entry): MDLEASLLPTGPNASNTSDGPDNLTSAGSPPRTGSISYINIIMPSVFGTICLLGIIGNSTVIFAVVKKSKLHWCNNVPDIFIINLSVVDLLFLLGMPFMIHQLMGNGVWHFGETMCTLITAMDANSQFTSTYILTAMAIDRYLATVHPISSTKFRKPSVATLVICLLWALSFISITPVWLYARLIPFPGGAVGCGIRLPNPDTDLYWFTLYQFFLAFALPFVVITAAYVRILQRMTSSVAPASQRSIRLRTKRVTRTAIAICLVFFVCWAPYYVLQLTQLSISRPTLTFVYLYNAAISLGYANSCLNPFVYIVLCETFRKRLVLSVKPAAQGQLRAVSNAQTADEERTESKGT

| SMILES | Ki |
| --- | --- |
| Cn1c2c(c3ccc(N4CCN(CCc5ccc(Cl)cc5)CC4=O)cc31)CCNCC2 [Example 53, 4-(4-Chlorophenethyl)-1-(6-methyl-1,2,3,4,5,6-hexahydroazepino[4,5-b]indol-8-yl)piperazin-2-one dihydrochloride] | 13 nM |
| Cn1c2c(c3ccc(-n4ccc(OCc5ccc(Cl)cc5F)cc4=O)cc31)CCNCC2 [Example 55, 4-(4-Chloro-2-fluorobenzyloxy)-1-(6-methyl-1,2,3,4,5,6-hexahydroazepino[4,5-b]indol-8-yl)pyridin-2(1H)-one hydrochloride] | 12 nM |
| Cn1c2c(c3ccc(-n4ccc(OCc5ccc(F)cc5F)cc4=O)nc31)CNCCC2 [Example 94, 4-(2,4-Difluorobenzyloxy)-1-(10-methyl-5,6,7,8,9,10-hexahydropyrido[3′,2′:4,5]pyrrolo[3,2-c]azepin-2-yl)pyridin-2(1H)-one hydrochloride] | 11 nM |
| CC(C)N1CCCc2c(c3ccc(-n4ccc(OCc5ccccc5)cc4=O)cc3n2C)C1 [Example 31, 4-(Benzyloxy)-1-(2-isopropyl-6-methyl-1,2,3,4,5,6-hexahydroazepino[4,3-b]indol-8-yl)pyridin-2(1H)-one hydrochloride] | 9.4 nM |
| CN1CCc2c(n(C)c3cc(N4CCN(CCc5ccc(F)cc5)CC4=O)ccc23)CC1 [Example 98, 1-(3,6-Dimethyl-1,2,3,4,5,6-hexahydroazepino[4,5-b]indol-8-yl)-4-(4-fluorophenethyl)piperazin-2-one dihydrochloride] | 13 nM |
| Cn1c2c(c3ccc(-n4ccc(OCc5ccc(Cl)cc5Cl)cc4=O)nc31)CNCCC2 [Example 93, 4-(2,4-Dichlorobenzyloxy)-1-(10-methyl-5,6,7,8,9,10-hexahydropyrido[3′,2′:4,5]pyrrolo[3,2-c]azepin-2-yl)pyridin-2(1H)-one hydrochloride] | 26 nM |
| Cn1c2c(c3ccc(-n4ccc(OCc5ccc(Cl)cc5)cc4=O)nc31)CNCCC2 [Example 113, 4-(4-Chlorobenzyloxy)-1-(10-methyl-5,6,7,8,9,10-hexahydropyrido[3′,2′:4,5]pyrrolo[3,2-c]azepin-2-yl)pyridin-2(1H)-one hydrochloride] | 5.9 nM |
| Cl.Cn1c2c(c3ccc(-n4ccc(OCc5ccc(F)cn5)cc4=O)cc31)CCNCC2 [Example 40, 4-((5-Fluoropyridin-2-yl)methoxy-1-(6-methyl-1,2,3,4,5,6-hexahydroazepino[4,5-b]indol-8-yl)pyridin-2(1H)-one hydrochloride] | 7.2 nM |
| O=c1cc(OCc2ccc(F)cn2)ccn1-c1ccc2c3c([nH]c2c1)CCNCC3 [Example 13, 4-((5-Fluoropyridin-2-yl)methoxy)-1-(1,2,3,4,5,6-hexahydroazepino[4,5-b]indol-8-yl)pyridin-2(1H)-one dihydrochloride] | 10.3 nM |
| CN1CCCc2c(c3ccc(-n4ccc(OCc5ccccc5)cc4=O)cc3n2C)C1 [Example 29, 4-(Benzyloxy)-1-(2,6-dimethyl-1,2,3,4,5,6-hexahydroazepino[4,3-b]indol-8-yl)pyridin-2(1H)-one hydrochloride] | 5 nM |
| CC(C)N1CCc2c(n(C)c3cc(-n4ccc(OCc5ccc(F)cn5)cc4=O)ccc23)CC1 [Example 16, 4-((5-Fluoropyridin-2-yl)methoxy)-1-(3-isopropyl-6-methyl-1,2,3,4,5,6-hexahydroazepino[4,5-b]indol-8-yl)pyridin-2(1H)-one hydrochloride] | 13.7 nM |
| Cn1c2c(c3ccc(-n4ccc(OCc5ccc(F)cn5)cc4=O)cc31)C(=O)NCCC2 [Example 104, 8-(4-((5-Fluoropyridin-2-yl)methoxy)-2-oxopyridin-1(2H)-yl)-6-methyl-2,3,4,5-tetrahydroazepino[4,3-b]indol-1(6H)-one] | 149 nM |
| Cn1c2c(c3ccc(-n4ccc(-c5ccc(C(F)(F)F)nc5)nc4=O)cc31)CCNCC2 [Example 58, 1-(6-Methyl-1,2,3,4,5,6-hexahydroazepino[4,5-b]indol-8-yl)-4-(6-(trifluoromethyl)pyridin-3-yl)pyrimidin-2(1H)-one hydrochloride] | 163 nM |
| Cn1c2c(c3ccc(-n4ccc(OCc5ccc(Cl)cc5Cl)cc4=O)cc31)CNCCC2 [Example 65, 4-(2,4-Dichlorobenzyloxy)-1-(6-methyl-1,2,3,4,5,6-hexahydroazepino[4,3-b]indol-8-yl)pyridin-2(1H)-one hydrochloride] | 11 nM |
| O=c1cc(-c2ccc(C(F)(F)F)cc2)ccn1-c1ccc2c3c([nH]c2c1)CCNCC3 [Example 12, 1-(1,2,3,4,5,6-Hexahydroazepino[4,5-b]indol-8-yl)-4-(4-(trifluoromethyl)phenyl)pyridin-2(1H)-one hydrochloride] | 11.4 nM |
| O=c1cc(OCc2ccccc2)ccn1-c1ccc2c3c([nH]c2c1)CCCNC3 [Example 35, 4-(Benzyloxy)-1-(1,2,3,4,5,6-hexahydroazepino[4,3-b]indol-8-yl)pyridin-2(1H)-one hydrochloride] | 5.8 nM |
| Cn1c2c(c3ccc(-n4ccc(OCc5ccc(Cl)cc5Cl)cc4=O)cc31)CCNCC2 [Example 51, 4-(2,4-Dichlorobenzyloxy)-1-(6-methyl-1,2,3,4,5,6-hexahydroazepino[4,5-b]indol-8-yl)pyridin-2(1H)-one] | 24 nM |
| CCN1CCCc2c(c3ccc(-n4ccc(OCc5ccccc5)cc4=O)cc3n2C)C1 [Example 30, 4-(Benzyloxy)-1-(2-ethyl-6-methyl-1,2,3,4,5,6-hexahydroazepino[4,3-b]indol-8-yl)pyridin-2(1H)-one hydrochloride] | 5 nM |
| CN1CCc2c(n(C)c3cc(-n4ccc(OCc5ccccc5)cc4=O)ccc23)CC1 [Example 44, 4-(benzyloxy)-1-(3,6-dimethyl-1,2,3,4,5,6-hexahydroazepino[4,5-b]indol-8-yl)pyridin-2(1H)-one hydrochloride] | 11.6 nM |
| Cn1c2c(c3ccc(-n4ncc(OCc5ccc(F)cn5)cc4=O)cc31)CCNCC2 [Example 10, 5-((5-Fluoropyridin-2-yl)methoxy)-2-(6-methyl-1,2,3,4,5,6-hexahydroazepino[4,5-b]indol-8-yl)pyridazin-3(2H)-one dihydrochloride] | 13.4 nM |
| Cn1c2c(c3ccc(-n4ccc(OCc5ccc(Cl)cn5)cc4=O)nc31)CCNCC2 [Example 85, 4-((5-Chloropyridin-2-yl)methoxy)-1-(10-methyl-5,6,7,8,9,10-hexahydropyrido[3′,2′:4,5]pyrrolo[2,3-d]azepin-2-yl)pyridin-2(1H)-one hydrochloride] | 11 nM |
| CN1CCCc2c(c3ccc(-n4ccc(OCc5ccc(C(F)(F)F)nc5)cc4=O)cc3n2C)C1 [Example 71, 1-(2,6-Dimethyl-1,2,3,4,5,6-hexahydroazepino[4,3-b]indol-8-yl)-4-((6-(trifluoromethyl)pyridin-3-yl)methoxy)pyridin-2(1H)-one hydrochloride] | 8.5 nM |
| Cn1c2c(c3ccc(-n4ccc(OCc5ncc(F)cc5F)cc4=O)nc31)CNCCC2 [Example 114, 4-((3,5-Difluoropyridin-2-yl)methoxy)-1-(10-methyl-5,6,7,8,9,10-hexahydropyrido[3′,2′:4,5]pyrrolo[3,2-c]azepin-2-yl)pyridin-2(1H)-one hydrochloride] | 44 nM |
| Cn1c2c(c3ccc(-n4ccc(OCc5ccccc5)cc4=O)cc31)CCNCC2 [Example 43, 4-(Benzyloxy)-1-(6-methyl-1,2,3,4,5,6-hexahydroazepino[4,5-b]indol-8-yl)pyridin-2(1H)-one hydrochloride] | 8.9 nM |
| Cc1ccc(COc2ccn(-c3ccc4c5c(n(C)c4c3)CCNCC5)c(=O)c2)cn1 [Example 45, 1-(6-Methyl-1,2,3,4,5,6-hexahydroazepino[4,5-b]indol-8-yl)-4-((6-methylpyridin-3-yl)methoxy)pyridin-2(1H)-one dihydrochloride] | 26 nM |
| Cn1c2c(c3ccc(-n4ccc(OCc5ccc(F)cc5)cc4=O)nc31)CCNCC2 [Example 110, 4-(4-Fluorobenzyloxy)-1-(10-methyl-5,6,7,8,9,10-hexahydropyrido[3′,2′:4,5]pyrrolo[2,3-d]azepin-2-yl)pyridin-2(1H)-one hydrochloride] | 12 nM |
| Cn1c2c(c3ccc(-n4ccc(-c5ccc(C(F)(F)F)cn5)cc4=O)cc31)CCNCC2 [Example 3, 1-(6-Methyl-1,2,3,4,5,6-hexahydroazepino[4,5-b]indol-8-yl)-4-(5-(trifluoromethyl)pyridin-2-yl)pyridin-2(1H)-one dihydrochloride] | 10.1 nM |
| Cn1c2c(c3ccc(N4CCN(CCc5ccc(F)cc5)CC4=O)cc31)CCNCC2 [Example 97, 4-(4-Fluorophenethyl)-1-(6-methyl-1,2,3,4,5,6-hexahydroazepino[4,5-b]indol-8-yl)piperazin-2-one dihydrochloride] | 13 nM |
| Cn1c2c(c3ccc(-n4ccc(OCc5ccc(Cl)cc5)cc4=O)cc31)CNCCC2 [Example 105, 4-(4-Chlorobenzyloxy)-1-(6-methyl-1,2,3,4,5,6-hexahydroazepino[4,3-b]indol-8-yl)pyridin-2(1H)-one hydrochloride] | 7.6 nM |
